The values that follow come from publication PMC3566764, “Thioester derivatives of the natural product psammaplin A as potent histone deacetylase inhibitors” (Beilstein Journal of Organic Chemistry, 2013).

Molecules are shown by their SMILES. Like-named read-outs stand apart in the source and are kept apart here.

The test system of test [1] is MCF7 (human breast carcinoma). On the set-up: method as in PMID 22280363. The following applies: in brackets, cited from earlier work.
For test [2], the system named is WI38 (normal human lung fibroblast). On the set-up: method as in PMID 22280363. The following applies: in brackets, cited from earlier work.
The test system of test [3] is A549 (human lung carcinoma). On the set-up: method as in PMID 22280363. The following applies: in brackets, cited from earlier work.
Test [4] has as its target T1, recombinant human HDAC6 (rHDAC6) (Homo sapiens, UniProt Q9UBN7).
T1 construct: purchased BPS Bioscience (US)
T1 sequence (Q9UBN7 1-1215): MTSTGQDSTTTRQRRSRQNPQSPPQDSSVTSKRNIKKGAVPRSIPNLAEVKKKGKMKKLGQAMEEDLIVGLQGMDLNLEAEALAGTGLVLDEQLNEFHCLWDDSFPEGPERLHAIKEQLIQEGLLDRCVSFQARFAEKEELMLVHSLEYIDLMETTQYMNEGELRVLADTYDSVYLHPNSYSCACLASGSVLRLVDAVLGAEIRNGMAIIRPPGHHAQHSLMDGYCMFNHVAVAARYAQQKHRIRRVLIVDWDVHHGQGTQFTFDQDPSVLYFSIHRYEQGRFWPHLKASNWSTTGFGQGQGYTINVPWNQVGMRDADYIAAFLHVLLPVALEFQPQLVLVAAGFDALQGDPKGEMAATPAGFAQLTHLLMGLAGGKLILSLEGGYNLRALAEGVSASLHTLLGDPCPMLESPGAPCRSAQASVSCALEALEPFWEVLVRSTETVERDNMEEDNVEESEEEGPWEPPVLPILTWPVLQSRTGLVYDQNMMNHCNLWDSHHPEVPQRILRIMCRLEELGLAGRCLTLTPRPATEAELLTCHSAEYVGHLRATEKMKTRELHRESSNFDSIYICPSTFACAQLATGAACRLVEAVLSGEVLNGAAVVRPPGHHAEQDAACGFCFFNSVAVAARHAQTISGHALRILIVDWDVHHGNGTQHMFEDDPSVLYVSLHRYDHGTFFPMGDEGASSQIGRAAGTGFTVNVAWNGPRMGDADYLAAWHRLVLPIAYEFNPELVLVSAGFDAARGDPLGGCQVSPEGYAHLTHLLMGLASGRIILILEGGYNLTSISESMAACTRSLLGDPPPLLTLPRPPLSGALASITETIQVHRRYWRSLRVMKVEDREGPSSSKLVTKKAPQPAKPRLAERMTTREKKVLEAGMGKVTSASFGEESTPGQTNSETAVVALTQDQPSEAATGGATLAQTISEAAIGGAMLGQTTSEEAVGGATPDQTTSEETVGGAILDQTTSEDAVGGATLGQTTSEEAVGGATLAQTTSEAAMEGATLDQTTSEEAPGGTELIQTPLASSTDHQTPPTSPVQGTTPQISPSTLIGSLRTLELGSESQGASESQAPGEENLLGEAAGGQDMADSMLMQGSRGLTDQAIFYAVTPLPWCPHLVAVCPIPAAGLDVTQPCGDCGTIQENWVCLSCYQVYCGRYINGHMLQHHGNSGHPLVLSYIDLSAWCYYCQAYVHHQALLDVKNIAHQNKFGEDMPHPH
On the set-up: method as in PMID 22280363. To be noted: in brackets, cited from earlier work.

In test [5] the target is T2, rHDAC1 (Homo sapiens, UniProt Q13547).
T2 construct: purchased BPS Bioscience (US)
T2 sequence (Q13547 whole entry): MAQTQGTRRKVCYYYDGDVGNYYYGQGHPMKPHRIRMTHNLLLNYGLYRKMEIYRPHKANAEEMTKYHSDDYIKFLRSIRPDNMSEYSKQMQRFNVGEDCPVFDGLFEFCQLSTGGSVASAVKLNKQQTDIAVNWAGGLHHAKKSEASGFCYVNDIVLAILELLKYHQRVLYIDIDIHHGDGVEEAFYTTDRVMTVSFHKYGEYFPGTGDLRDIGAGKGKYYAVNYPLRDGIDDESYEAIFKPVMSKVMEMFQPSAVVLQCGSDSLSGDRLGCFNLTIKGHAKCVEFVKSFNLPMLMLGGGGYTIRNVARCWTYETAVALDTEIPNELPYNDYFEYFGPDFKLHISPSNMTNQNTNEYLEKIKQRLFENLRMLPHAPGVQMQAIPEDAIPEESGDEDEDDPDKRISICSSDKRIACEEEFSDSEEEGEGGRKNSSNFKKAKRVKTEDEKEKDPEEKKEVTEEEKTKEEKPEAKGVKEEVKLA
On the set-up: method as in PMID 22280363. To be noted: in brackets, cited from earlier work.

Test [6] deals with A549 (human lung carcinoma). The experiment in a line: Cytotoxicity against A549 cell line. In kind it is cell-based. To be noted: for IC50: Homo sapiens, A549 cells. On the procedure:
(§1) Thioesters 7–9 were assayed against A549, MCF7 and WI38 cell lines, in addition to recombinant human rHDAC1 (class I) and recombinant human HDAC6 (rHDAC6, class II) as previously reported. Psammaplin A (3), prereduced psammaplin A thiol (4), and SAHA (1) were included as control compounds. IC50^6/1 is defined by the ratio IC50^HDAC6/IC50^HDAC1 and was used as an indicator of isoform selectivity in vitro.

Test [7] concerns MCF7 (human breast carcinoma). The experiment in a line: Cytotoxicity against MCF7 cell line. In kind it is cell-based. The following applies: MCF7 cells. On the procedure: as §1
The subject of test [8] is WI38 (normal human lung fibroblast). Briefly: Cytotoxicity against WI38 cell line. Format: cell-based. To be noted: for IC50: Homo sapiens, WI-38, WI38 cells. On the procedure: as §1
Test [9] addresses T2, rHDAC1. The experiment in a line: rHDAC1 inhibition, coupled Boc-Lys(Ac)-AMC/trypsin fluorescence assay. In kind it is biochemical. The following applies: for IC50^6/1 (ratio IC50 HDAC6/IC50 HDAC1): isoform selectivity in vitro; for IC50: purified recombinant human HDAC1. On the procedure:
(§2) HDAC assays were performed as previously reported. The recombinant human histone deacetylases rHDAC1 and rHDAC6 were obtained from BPS Bioscience (US).
(§3) All reactions were performed in black half area 96-well microplates (Greiner bio-one, Germany) according to the general procedure described by Wegener et al. with some minor modifications. […] The buffer components were purchased from Merck (Germany), Roth (Germany) and Sigma-Aldrich.
(§4) The enzyme reaction was initiated by the addition of Boc-Lys(Ac)-AMC substrate. The reaction mixture was incubated at 30 °C in the dark and stopped after 60 min by the addition of a mixture of 70 µM trypsin and 200 nM SAHA. The fluorescence of AMC served as an indirect measure of HDAC enzyme activity. The kinetics of AMC release was measured on a PolarStar fluorescence plate reader (BMG) with an excitation wavelength of 340 nm and an emission wavelength of 460 nm. Complete cleavage of deacetylated Boc-Lys-AMC by trypsin was achieved after about 10–15 min. The fluorescence intensity of the plateau was averaged over at least 5 min and normalized with respect to the percentage of enzyme activity. Finally, the normalized fluorescence intensities were plotted versus the concentration of test compounds and fitted to a four-parameter logistic model to calculate the IC50 values.

Test [10] concerns the target T1, recombinant human HDAC6 (rHDAC6). The experiment in a line: rHDAC6 inhibition, coupled Boc-Lys(Ac)-AMC/trypsin fluorescence assay. Format: biochemical. To be noted: purified recombinant human HDAC6. On the procedure:
as §2, §3, §4

The target in test [11] is T2, rHDAC1. Briefly: rHDAC1 inhibition as a function of initial incubation time. Format: biochemical. To be noted: thioester at IC50 concentration, incubation 1–60 minutes. On the procedure: An alternative hypothesis for the high potency of the thioester inhibitors is that the HDAC enzyme cleaves the acetyl group directly, utilizing its intrinsic deacetylase activity. Inhibition of rHDAC1 was measured (at the IC50 concentration of thioester) as a function of the initial incubation time (1–60 minutes) of rHDAC1 with thioesters 7 and 9 (Figure 2). […] Finally, we assessed whether the use of thioester inhibitors could influence the assay readout, when using our coupled HDAC assay. Trypsin-dependant generation of the fluorescence intensity (2nd step of our coupled assay) was discounted as a source of false-positive activity, since trypsin was used in a large excess (430 μM) compared to the thioesters (low micromolar to nanomolar). Direct compound inhibition of trypsin would therefore not be significant in the overall readout on stoichiometry grounds.
Figure 2 rHDAC1 was incubated with a predetermined IC50 concentration of 7 (left) and 9 (right) for 1–60 minutes, and the remaining rHDAC1 activity (Y-axis, %) was recorded and plotted as a function of the incubation time (X-axis, minutes).
A serial dilution of test compounds was pre-incubated with 7.4 nM rHDAC1 or 2.8 nM rHDAC6, at 21 ± 1 °C in the dark for different periods of time as indicated. […] The fluorescence of AMC served as an indirect measure of HDAC enzyme activity. […]

Where [12] appears, read: second value: corresponding thiol.
Where [13] appears, read: first value: corresponding disulfide.

Usually IC50 stands for the concentration that gives 50% inhibition. On to `COc1ccc(CC(=NO)C(=O)NCCS)cc1Br` [thiol of 8], for which the half-inhibitory concentration (IC50) is 0.61 µM in test [1] (setting [12]); 1.1 µM in [2] (setting [12]); 0.16 µM in test [3] (setting [12]); 3.2 µM in [4] (setting [12]); 0.002 µM on rHDAC1 [5] (setting [12]). In addition, the “IC50^6/1 (ratio IC50 HDAC6/IC50 HDAC1)” value at rHDAC1 [5] (setting [12]) is recorded as 1772.

For the molecule `COc1ccc(CC(=O)C(=O)NCCSSCCNC(=O)C(=O)Cc2ccc(OC)c(Br)c2)cc1Br` [disulfide of 9], the IC50 in test [1] (setting [13]) was 3.9 µM; in test [2] (setting [13]), 4.1 µM; in test [3] (setting [13]), 10 µM; in test [4] (setting [13]), 8 µM; at rHDAC1 [5] (setting [13]), 9 µM. The “IC50^6/1 (ratio IC50 HDAC6/IC50 HDAC1)” value at rHDAC1 [5] (setting [13]) is 0.9.

In the case of `COc1ccc(CC(=NO)C(=O)NCCSSCCNC(=O)C(Cc2ccc(OC)c(Br)c2)=NO)cc1Br` [disulfide of 8], the IC50 was 0.63 µM in test [1] (setting [13]); 2.2 µM in [2] (setting [13]); 4.1 µM in [3] (setting [13]); 2 µM in test [4] (setting [13]); 0.043 µM at rHDAC1 [5] (setting [13]). Besides, the “IC50^6/1 (ratio IC50 HDAC6/IC50 HDAC1)” value at rHDAC1 [5] (setting [13]) is given as 46.

Regarding `O=C(NCCSSCCNC(=O)/C(Cc1ccc(O)c(Br)c1)=N/O)/C(Cc1ccc(O)c(Br)c1)=N/O` [PSA (3), psammaplin A], the IC50 in [6] is 7.5 µM; in test [7], 1.3 µM; in [8], 3.4 µM; at rHDAC1 [9], 0.045 µM; in test [10], 2.8 µM. Besides, the “IC50^6/1 (ratio IC50 HDAC6/IC50 HDAC1)” value on rHDAC1 [9] is 62.

Consider `CON=C(Cc1ccc(OC)c(Br)c1)C(=O)NCCS` [thiol of 7], for which the IC50 in test [1] (setting [12]) was 12 µM; in [2] (setting [12]), 10 µM; in [3] (setting [12]) it was 5.1 µM; in [4] (setting [12]), 2.7 µM; on rHDAC1 [5] (setting [12]), 0.015 µM. Further, the “IC50^6/1 (ratio IC50 HDAC6/IC50 HDAC1)” value on rHDAC1 [5] (setting [12]) was 180.

As for `O=C(CCCCCCC(=O)Nc1ccccc1)NO` [SAHA (1), suberoylanilide hydroxamic acid], the “IC50^6/1 (ratio IC50 HDAC6/IC50 HDAC1)” value on rHDAC1 [9] was found to be 7.

Consider `CON=C(Cc1ccc(OC)c(Br)c1)C(=O)NCCSSCCNC(=O)C(Cc1ccc(OC)c(Br)c1)=NOC` [disulfide of 7], for which the 50% inhibitory concentration (IC50) is 13 µM in test [1] (setting [13]), 46 µM in [3] (setting [13]), above 50 µM in test [4] (setting [13]) and 0.22 µM on rHDAC1 [5] (setting [13]). Further, the “IC50^6/1 (ratio IC50 HDAC6/IC50 HDAC1)” value on rHDAC1 [5] (setting [13]) was above 230.

As for `COc1ccc(CC(=O)C(=O)NCCSC(C)=O)cc1Br` [Compound 9, (S)-2-(3-(3-Bromo-4-methoxyphenyl)-2-oxopropanamido)ethyl ethanethioate], the “activity against A549 cells at the highest concentration tested” value in test [6] (50 μM) is “inactive”. Further, the 50% inhibitory concentration (IC50) is above 50 µM in test [6]; 21 µM in test [7]; above 50 µM in test [8]; 0.48 µM at rHDAC1 [9]; 9.5 µM in test [10]. Moreover, at rHDAC1 [11], the “variation of rHDAC1 inhibition with initial incubation time” value is “No variation of enzymatic inhibition”. Moreover, the “activity against WI38 cells at the highest concentration tested” value in test [8] (50 μM) was “inactive”. At rHDAC1 [9], the “IC50^6/1 (ratio IC50 HDAC6/IC50 HDAC1)” value is recorded as above 20.

As for `CO/N=C(\Cc1ccc(OC)c(Br)c1)C(=O)NCCSC(C)=O` [Compound 7, (E)-(S)-2-(3-(3-Bromo-4-methoxyphenyl)-2-(methoxyimino)propanamido)ethyl ethanethioate], the IC50 was 44 µM in test [6]; 12 µM in test [7]; 17 µM in test [8]; 0.12 µM at rHDAC1 [9]; above 50 µM in test [10]. Further, on rHDAC1 [11], the “variation of rHDAC1 inhibition with initial incubation time” value is given as “No variation of enzymatic inhibition”. Further, the “IC50^6/1 (ratio IC50 HDAC6/IC50 HDAC1)” value on rHDAC1 [9] is listed as above 417. Also, on rHDAC1 [9] (thioester vs free thiol), the “times less potent than the corresponding free thiol analogue against rHDAC1” value came out at 8 times.

`O=C(NCCS)/C(Cc1ccc(O)c(Br)c1)=N/O` [PSA-SH (4)]: the IC50 in test [6] amounted to 2.5 µM; in test [7], 2.4 µM; in test [8] it was 3.4 µM; on rHDAC1 [9] it was 0.001 µM; in test [10] it was 0.36 µM. For the same molecule, the “IC50^6/1 (ratio IC50 HDAC6/IC50 HDAC1)” value on rHDAC1 [9] was 360.

Consider `COc1ccc(CC(=O)C(=O)NCCS)cc1Br` [thiol of 9], for which the IC50 in test [1] (setting [12]) is 3.4 µM; in test [2] (setting [12]) it was 14 µM; in test [3] (setting [12]) it was 11 µM; in test [4] (setting [12]) it was 0.25 µM; on rHDAC1 [5] (setting [12]), 1.1 µM. Besides, on rHDAC1 [5] (setting [12]), the “IC50^6/1 (ratio IC50 HDAC6/IC50 HDAC1)” value was 0.22.
